PubChem BioAssay AID1963837 (Molecular Pharmacology Branch, DTP, NCI, 2024)

tested on: 843126-344-R-J1-PDC complex spheroid viability; assay: Anticancer human tumor 843126-344-R-J1-PDC patient-derived melanoma cell line growth inhibition [POLQ]; settings: second compound 0.0316 µM; first compound 3.16 µM; hits give low values
Outline: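 Patient-derived tumour cells were co-cultured with HUVEC and mesenchymal stem cells as multicellular spheroids at 37 °C. They were treated with POLQ inhibitors (novobiocin, ART-558, RP6685) alone or combined with other agents. Top concentrations were at or near clinical Cmax (otherwise 10 microM; SN-38 at 1 microM), decreasing in half-log steps.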
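Also: spheroids exposed to drugs for seven days before readout.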

**Q.** Which viability, T/C does the source give for `CNCc1ccc(-c2[nH]c3cc(F)cc4c3c2CCNC4=O)cc1` + COC1C(OC(N)=O)C(O)C(Oc2ccc3c(O)c(NC(=O)c4ccc(O)c(CC=C(C)C)c4)c(=O)oc3c2C)OC1(C)C here?
**A.** 86.8%

**Q.** `C=CC(=O)N1CCN(c2nc(=O)n(-c3c(C)ccnc3C(C)C)c3nc(-c4c(O)cccc4F)c(F)cc23)C(C)C1` (configuration not stated) + Cc1cccc(N(C)C(=O)C2C(O)CCN2c2nc(C)cc(C(F)(F)F)c2C#N)c1 was tested. Which viability, T/C did it give?
**A.** 89.6%

**Q.** With `CC(C)n1c(=O)n(C)c2cnc3cc(F)c(-c4ccc(OCCCN5CCCCC5)nc4)cc3c21` + Cc1cccc(N(C)C(=O)C2C(O)CCN2c2nc(C)cc(C(F)(F)F)c2C#N)c1 as the molecule, how does the viability, T/C read?
**A.** 93%

**Q.** With `COc1cc2cc(C(=O)CCC(=O)O)sc2cc1OC` + Nc1ccc(C#CCN(C(=O)Cc2ncc(C(F)(F)F)cc2C(F)(F)F)c2ccc(F)cc2)nn1 as the molecule, how does the viability, T/C read?
**A.** 90.2%

**Q.** How did the viability, T/C turn out when `CC1COCCN1c1cc(-c2ccnn2C)c2ccnc(-c3ccn[nH]3)c2n1` (configuration not stated) + Nc1ccc(C#CCN(C(=O)Cc2ncc(C(F)(F)F)cc2C(F)(F)F)c2ccc(F)cc2)nn1 was run?
**A.** 36.7%

same assay, conditions: second compound 0.0316 µM; first compound 10 µM; hits give low values

**Q.** For `CC1COCCN1c1cc(C2(S(C)(=N)=O)CC2)nc(-c2ccnc3[nH]ccc23)n1` (configuration not stated) + Cc1cccc(N(C)C(=O)C2C(O)CCN2c2nc(C)cc(C(F)(F)F)c2C#N)c1, which viability, T/C is on record?
**A.** 51.1%

**Q.** With `CNCc1ccc(-c2[nH]c3cc(F)cc4c3c2CCNC4=O)cc1` + COC1C(OC(N)=O)C(O)C(Oc2ccc3c(O)c(NC(=O)c4ccc(O)c(CC=C(C)C)c4)c(=O)oc3c2C)OC1(C)C as the molecule, how does the viability, T/C read?
**A.** 87%

**Q.** Which viability, T/C does the source give for `C=CC(=O)N1CCN(c2nc(=O)n(-c3c(C)ccnc3C(C)C)c3nc(-c4c(O)cccc4F)c(F)cc23)C(C)C1` (configuration not stated) + Cc1cccc(N(C)C(=O)C2C(O)CCN2c2nc(C)cc(C(F)(F)F)c2C#N)c1 here?
**A.** 78.6%

**Q.** With `CC(C)n1c(=O)n(C)c2cnc3cc(F)c(-c4ccc(OCCCN5CCCCC5)nc4)cc3c21` + Cc1cccc(N(C)C(=O)C2C(O)CCN2c2nc(C)cc(C(F)(F)F)c2C#N)c1 as the molecule, how does the viability, T/C read?
**A.** 60.5%

**Q.** For `COc1cc2cc(C(=O)CCC(=O)O)sc2cc1OC` + Nc1ccc(C#CCN(C(=O)Cc2ncc(C(F)(F)F)cc2C(F)(F)F)c2ccc(F)cc2)nn1, which viability, T/C is on record?
**A.** 89.2%

**Q.** How did the viability, T/C turn out when `CC1COCCN1c1cc(-c2ccnn2C)c2ccnc(-c3ccn[nH]3)c2n1` (configuration not stated) + Nc1ccc(C#CCN(C(=O)Cc2ncc(C(F)(F)F)cc2C(F)(F)F)c2ccc(F)cc2)nn1 was run?
**A.** 29%

same assay, conditions: second compound 0.1 µM; first compound 0.00316 µM; hits give low values

**Q.** For `C=CCn1c(=O)c2cnc(Nc3ccc(N4CCN(C)CC4)cc3)nc2n1-c1cccc(C(C)(C)O)n1` + Cc1cccc(N(C)C(=O)C2C(O)CCN2c2nc(C)cc(C(F)(F)F)c2C#N)c1, which viability, T/C is on record?
**A.** 111%

same assay, conditions: second compound 0.1 µM; first compound 0.01 µM; hits give low values

**Q.** With `C=CCn1c(=O)c2cnc(Nc3ccc(N4CCN(C)CC4)cc3)nc2n1-c1cccc(C(C)(C)O)n1` + Cc1cccc(N(C)C(=O)C2C(O)CCN2c2nc(C)cc(C(F)(F)F)c2C#N)c1 as the molecule, how does the viability, T/C read?
**A.** 113%

same assay, conditions: second compound 0.1 µM; first compound 0.0316 µM; hits give low values

**Q.** How did the viability, T/C turn out when `CC1COCCN1c1cc(C2(S(C)(=N)=O)CC2)nc(-c2ccnc3[nH]ccc23)n1` (configuration not stated) + Cc1cccc(N(C)C(=O)C2C(O)CCN2c2nc(C)cc(C(F)(F)F)c2C#N)c1 was run?
**A.** 91.3%

**Q.** How did the viability, T/C turn out when `C=CCn1c(=O)c2cnc(Nc3ccc(N4CCN(C)CC4)cc3)nc2n1-c1cccc(C(C)(C)O)n1` + Cc1cccc(N(C)C(=O)C2C(O)CCN2c2nc(C)cc(C(F)(F)F)c2C#N)c1 was run?
**A.** 103%

**Q.** `CNCc1ccc(-c2[nH]c3cc(F)cc4c3c2CCNC4=O)cc1` + COC1C(OC(N)=O)C(O)C(Oc2ccc3c(O)c(NC(=O)c4ccc(O)c(CC=C(C)C)c4)c(=O)oc3c2C)OC1(C)C was tested. Which viability, T/C did it give?
**A.** 88%

**Q.** How did the viability, T/C turn out when `C=CC(=O)N1CCN(c2nc(=O)n(-c3c(C)ccnc3C(C)C)c3nc(-c4c(O)cccc4F)c(F)cc23)C(C)C1` (configuration not stated) + Cc1cccc(N(C)C(=O)C2C(O)CCN2c2nc(C)cc(C(F)(F)F)c2C#N)c1 was run?
**A.** 81.8%

**Q.** How did the viability, T/C turn out when `CC(C)n1c(=O)n(C)c2cnc3cc(F)c(-c4ccc(OCCCN5CCCCC5)nc4)cc3c21` + Cc1cccc(N(C)C(=O)C2C(O)CCN2c2nc(C)cc(C(F)(F)F)c2C#N)c1 was run?
**A.** 90.1%

**Q.** For `COc1cc2cc(C(=O)CCC(=O)O)sc2cc1OC` + Nc1ccc(C#CCN(C(=O)Cc2ncc(C(F)(F)F)cc2C(F)(F)F)c2ccc(F)cc2)nn1, which viability, T/C is on record?
**A.** 77.8%

**Q.** How did the viability, T/C turn out when `CC1COCCN1c1cc(-c2ccnn2C)c2ccnc(-c3ccn[nH]3)c2n1` (configuration not stated) + Nc1ccc(C#CCN(C(=O)Cc2ncc(C(F)(F)F)cc2C(F)(F)F)c2ccc(F)cc2)nn1 was run?
**A.** 84.3%

same assay, conditions: second compound 0.1 µM; first compound 0.1 µM; hits give low values

**Q.** How did the viability, T/C turn out when `CC1COCCN1c1cc(C2(S(C)(=N)=O)CC2)nc(-c2ccnc3[nH]ccc23)n1` (configuration not stated) + Cc1cccc(N(C)C(=O)C2C(O)CCN2c2nc(C)cc(C(F)(F)F)c2C#N)c1 was run?
**A.** 87.6%

**Q.** Which viability, T/C does the source give for `C=CCn1c(=O)c2cnc(Nc3ccc(N4CCN(C)CC4)cc3)nc2n1-c1cccc(C(C)(C)O)n1` + Cc1cccc(N(C)C(=O)C2C(O)CCN2c2nc(C)cc(C(F)(F)F)c2C#N)c1 here?
**A.** 113%

**Q.** How did the viability, T/C turn out when `CNCc1ccc(-c2[nH]c3cc(F)cc4c3c2CCNC4=O)cc1` + COC1C(OC(N)=O)C(O)C(Oc2ccc3c(O)c(NC(=O)c4ccc(O)c(CC=C(C)C)c4)c(=O)oc3c2C)OC1(C)C was run?
**A.** 102%

**Q.** How did the viability, T/C turn out when `C=CC(=O)N1CCN(c2nc(=O)n(-c3c(C)ccnc3C(C)C)c3nc(-c4c(O)cccc4F)c(F)cc23)C(C)C1` (configuration not stated) + Cc1cccc(N(C)C(=O)C2C(O)CCN2c2nc(C)cc(C(F)(F)F)c2C#N)c1 was run?
**A.** 81.3%

**Q.** `CC(C)n1c(=O)n(C)c2cnc3cc(F)c(-c4ccc(OCCCN5CCCCC5)nc4)cc3c21` + Cc1cccc(N(C)C(=O)C2C(O)CCN2c2nc(C)cc(C(F)(F)F)c2C#N)c1 was tested. Which viability, T/C did it give?
**A.** 104%

**Q.** How did the viability, T/C turn out when `COc1cc2cc(C(=O)CCC(=O)O)sc2cc1OC` + Nc1ccc(C#CCN(C(=O)Cc2ncc(C(F)(F)F)cc2C(F)(F)F)c2ccc(F)cc2)nn1 was run?
**A.** 103%

**Q.** `CC1COCCN1c1cc(-c2ccnn2C)c2ccnc(-c3ccn[nH]3)c2n1` (configuration not stated) + Nc1ccc(C#CCN(C(=O)Cc2ncc(C(F)(F)F)cc2C(F)(F)F)c2ccc(F)cc2)nn1 was tested. Which viability, T/C did it give?
**A.** 71.2%

same assay, conditions: second compound 0.1 µM; first compound 0.316 µM; hits give low values

**Q.** With `CC1COCCN1c1cc(C2(S(C)(=N)=O)CC2)nc(-c2ccnc3[nH]ccc23)n1` (configuration not stated) + Cc1cccc(N(C)C(=O)C2C(O)CCN2c2nc(C)cc(C(F)(F)F)c2C#N)c1 as the molecule, how does the viability, T/C read?
**A.** 97.2%

**Q.** Which viability, T/C does the source give for `C=CCn1c(=O)c2cnc(Nc3ccc(N4CCN(C)CC4)cc3)nc2n1-c1cccc(C(C)(C)O)n1` + Cc1cccc(N(C)C(=O)C2C(O)CCN2c2nc(C)cc(C(F)(F)F)c2C#N)c1 here?
**A.** 95.9%

**Q.** `CNCc1ccc(-c2[nH]c3cc(F)cc4c3c2CCNC4=O)cc1` + COC1C(OC(N)=O)C(O)C(Oc2ccc3c(O)c(NC(=O)c4ccc(O)c(CC=C(C)C)c4)c(=O)oc3c2C)OC1(C)C was tested. Which viability, T/C did it give?
**A.** 115%

**Q.** For `C=CC(=O)N1CCN(c2nc(=O)n(-c3c(C)ccnc3C(C)C)c3nc(-c4c(O)cccc4F)c(F)cc23)C(C)C1` (configuration not stated) + Cc1cccc(N(C)C(=O)C2C(O)CCN2c2nc(C)cc(C(F)(F)F)c2C#N)c1, which viability, T/C is on record?
**A.** 94.7%

**Q.** `CC(C)n1c(=O)n(C)c2cnc3cc(F)c(-c4ccc(OCCCN5CCCCC5)nc4)cc3c21` + Cc1cccc(N(C)C(=O)C2C(O)CCN2c2nc(C)cc(C(F)(F)F)c2C#N)c1 was tested. Which viability, T/C did it give?
**A.** 72.7%

**Q.** With `COc1cc2cc(C(=O)CCC(=O)O)sc2cc1OC` + Nc1ccc(C#CCN(C(=O)Cc2ncc(C(F)(F)F)cc2C(F)(F)F)c2ccc(F)cc2)nn1 as the molecule, how does the viability, T/C read?
**A.** 92%

**Q.** Which viability, T/C does the source give for `CC1COCCN1c1cc(-c2ccnn2C)c2ccnc(-c3ccn[nH]3)c2n1` (configuration not stated) + Nc1ccc(C#CCN(C(=O)Cc2ncc(C(F)(F)F)cc2C(F)(F)F)c2ccc(F)cc2)nn1 here?
**A.** 63.5%

same assay, conditions: second compound 0.1 µM; first compound 1 µM; hits give low values

**Q.** Which viability, T/C does the source give for `CC1COCCN1c1cc(C2(S(C)(=N)=O)CC2)nc(-c2ccnc3[nH]ccc23)n1` (configuration not stated) + Cc1cccc(N(C)C(=O)C2C(O)CCN2c2nc(C)cc(C(F)(F)F)c2C#N)c1 here?
**A.** 81.5%

**Q.** With `C=CCn1c(=O)c2cnc(Nc3ccc(N4CCN(C)CC4)cc3)nc2n1-c1cccc(C(C)(C)O)n1` + Cc1cccc(N(C)C(=O)C2C(O)CCN2c2nc(C)cc(C(F)(F)F)c2C#N)c1 as the molecule, how does the viability, T/C read?
**A.** 80.8%

**Q.** How did the viability, T/C turn out when `CNCc1ccc(-c2[nH]c3cc(F)cc4c3c2CCNC4=O)cc1` + COC1C(OC(N)=O)C(O)C(Oc2ccc3c(O)c(NC(=O)c4ccc(O)c(CC=C(C)C)c4)c(=O)oc3c2C)OC1(C)C was run?
**A.** 94.3%
